Converted amounts (≈) assume the structure as drawn. The source made the active and inactive calls. The calls are words filed in the database; no cut-off is given here.
Experiments:
Klebsiella pneumoniae = experiment: Antibacterial activity against Klebsiella pneumoniae assessed as reduction in bacterial growth measured after 24 hrs by two-fold serial dilution method; assay type: functional
[1] = target: T1, Beta-ketoacyl-[acyl-carrier-protein] synthase III (Escherichia coli K-12) (UniProt P0A6R0); experiment: Binding affinity to Escherichia coli FabH assessed as change in enthalpy by Isothermal titration calorimetry method
T1 sequence (whole entry): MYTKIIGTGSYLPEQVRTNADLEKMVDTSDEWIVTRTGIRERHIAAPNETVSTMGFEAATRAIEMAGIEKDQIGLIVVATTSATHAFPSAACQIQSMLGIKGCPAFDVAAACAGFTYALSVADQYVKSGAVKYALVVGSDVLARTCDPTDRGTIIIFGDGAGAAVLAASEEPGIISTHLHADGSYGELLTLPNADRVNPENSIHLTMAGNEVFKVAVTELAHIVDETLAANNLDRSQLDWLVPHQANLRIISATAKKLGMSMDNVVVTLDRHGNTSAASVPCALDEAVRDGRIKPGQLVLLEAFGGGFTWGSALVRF

Bacillus subtilis = experiment: Antibacterial activity against Bacillus subtilis assessed as reduction in bacterial growth measured after 24 hrs by two-fold serial dilution method; assay type: functional
Staphylococcus aureus [2] = experiment: In vivo antibacterial activity against Staphylococcus aureus infected in Sprague-Dawley rat skin infection model assessed in decrease in number of inflammatory cells within wound tissue measured after 3 to 10 days by H and E staining based analysis; assay type: functional, organism-based; conditions: time 3-10 day
[3] = Cytotoxicity against mouse NIH3T3 cells incubated for 24 hrs by MTT analysis; assay type: toxicity, cell-based
[4] = target: T1, Beta-ketoacyl-[acyl-carrier-protein] synthase III (Escherichia coli K-12); experiment: Binding affinity to Escherichia coli FabH assessed as change in Gibbs free energy by Isothermal titration calorimetry method
Staphylococcus aureus [5] = experiment: Antibacterial activity against Staphylococcus aureus assessed as reduction in bacterial growth measured after 24 hrs by two-fold serial dilution method; assay type: functional
Staphylococcus aureus [6] = experiment: In vivo antibacterial activity against Staphylococcus aureus infected in Sprague-Dawley rat skin infection model assessed in wound healing measured after 10 days (reference value: 70.8%); assay type: functional; conditions: time 10 day
[7] = target: T2, Beta-ketoacyl-[acyl-carrier-protein] synthase III (Escherichia coli K-12, UniProt P0A6R0); experiment: Binding affinity to Escherichia coli FabH assessed as dissociation constant by Isothermal titration calorimetry method
T2 sequence (P0A6R0 whole entry): T1 sequence (whole entry)

[8] = target: T2, Beta-ketoacyl-[acyl-carrier-protein] synthase III; experiment: Inhibition of Escherichia coli FabH
Staphylococcus aureus [9] = experiment: In vivo antibacterial activity against Staphylococcus aureus infected in Sprague-Dawley rat skin infection model assessed in reduction of wound size measured after 6 days; assay type: functional, organism-based; conditions: time 6.0 day
Staphylococcus aureus [10] = experiment: In vivo antibacterial activity against Staphylococcus aureus infected in Sprague-Dawley rat skin infection model assessed in reduction of wound pus measured after 3 days; assay type: functional, organism-based; conditions: time 3.0 day
Erythrocyte = experiment: Hemolytic activity in human erythrocytes assessed as hemolysis by spectrophotometric analysis; assay type: toxicity, cell-based
Pseudomonas aeruginosa = experiment: Antibacterial activity against Pseudomonas aeruginosa assessed as reduction in bacterial growth measured after 24 hrs by two-fold serial dilution method; assay type: functional
Staphylococcus aureus [11] = experiment: In vivo antibacterial activity against Staphylococcus aureus infected in Sprague-Dawley rat skin infection model assessed in shrink of wound area measured after 3 days; assay type: functional, organism-based; conditions: time 3.0 day
Streptococcus pneumoniae = experiment: Antibacterial activity against Streptococcus pneumoniae assessed as reduction in bacterial growth measured after 24 hrs by two-fold serial dilution method; assay type: functional
[12] = target: T1, Beta-ketoacyl-[acyl-carrier-protein] synthase III (Escherichia coli K-12); experiment: Binding affinity to Escherichia coli FabH assessed as change in entropy by Isothermal titration calorimetry method
Escherichia coli = experiment: Antibacterial activity against Escherichia coli assessed as reduction in bacterial growth measured after 24 hrs by two-fold serial dilution method; assay type: functional
Staphylococcus aureus [13] = experiment: In vivo antibacterial activity against Staphylococcus aureus infected in Sprague-Dawley rat skin infection model assessed in reduction of wound exudation measured after 3 days; assay type: functional, organism-based; conditions: time 3.0 day

Structure (SMILES): COC(=O)c1c[nH]c2cc(NC(=O)c3ccc4c(c3)OCCCO4)ccc12
- MIC (Klebsiella pneumoniae): 1.56 µg/mL (≈ 4.26 µM)
- deltaH [1]: -80 kcal/mol
- MIC (Bacillus subtilis): 3.13 µg/mL (≈ 8.54 µM)
- Activity (Staphylococcus aureus [2]): Active
- IC50 at 24 h [3]: 142 µM
- deltaG [4]: -6.4 kcal/mol
- MIC (Staphylococcus aureus [5]): 3.13 µg/mL (≈ 8.54 µM)
- Activity (Staphylococcus aureus [6]): 94%
- Kd [7]: 21.5 µM
- IC50 [8]: 2 µM
- Activity (Staphylococcus aureus [9]): Active
- Activity (Staphylococcus aureus [10]): Active
- HC30 (Erythrocyte): > 10 µg/mL
- MIC (Pseudomonas aeruginosa): 1.56 µg/mL (≈ 4.26 µM)
- Activity (Staphylococcus aureus [11]): Active
- MIC (Streptococcus pneumoniae): 6.25 µg/mL (≈ 17.1 µM)
- TdeltaS [12]: -73.6 kcal/mol
- MIC (Escherichia coli): 1.56 µg/mL (≈ 4.26 µM)
- Activity (Staphylococcus aureus [13]): Active

Reference: ChEMBL document CHEMBL5528027, “Target identification, and optimization of dioxygenated amide derivatives as potent antibacterial agents with FabH inhibitory activity” (Eur J Med Chem, 2024)
